Laboratory results: patent US20090281129A1, “CDKI PATHWAY INHIBITORS AND USES THEREOF” (Senex Biotechnology, Inc., priority 2006, published 2009)
Entries after “also recorded” stand apart in the source; their conditions may differ.

Tests used:
Format in all cases: cell-based
[1] = target: T1, NFκB (p50 or p65 subunits) (Homo sapiens, UniProt P19838+Q04206); test: TransAM NFκB p65 / p50 Chemi transcription factor assay (oligonucleotide binding); details: for TNFα-induced NFκB activity: TNFα-treated cells; for basal NFκB activity: control cells
T1 construct: endogenous in cells
From the text: The left set of bars represents cells treated with carrier control, the middle set represents cells treated with SNX2, and the right set represents cells treated with a known inhibitor of NFκB binding (TPCK).
We also tested if these compounds could act as the inhibitors of NFκB, by measuring cellular levels of p50 or p65 subunits binding oligonucleotides containing NFκB consensus binding site, using ACTIVE MOTIF TransAM™ NFκB p65 Chemi and NFκB p50 Chemi Transcription Factor Assay Kits.

HT1080 p21-9 cells = test: FACS analysis of DNA content (cell cycle distribution) in HT1080 p21-9 cells; details: 18 hrs; for increase in the G1 fraction relative to cells treated with IPTG alone: 20 μM compound added simultaneously with 50 μM IPTG; for decrease in the G2 fraction of IPTG-treated cells: 20 μM compound with 50 μM IPTG; for increase in the G1 fraction: 20 μM compound, in the absence of IPTG
Description: We have analyzed the effect of SNX2-class compounds on cell cycle distribution of p21-arrested HT1080 p21-9 cells. Upon p21 induction, these cells are known to arrest both in G1 and in G2 (Chang et al., Oncogene 19, 2165-2170), which is illustrated in FIG. 9 by a reduction in the S-phase but not in the G1 or G2 fractions of cells treated with 50 μM IPTG for 18 hrs, relative to IPTG-untreated cells (as determined by FACS analysis of DNA content in DAPI-stained cells). 20 μM concentrations of SNX2 or SNX14 produce a small increase in the G1 fraction in the absence of IPTG (4% increase with SNX2 and 5% increase with SNX14) (FIG. 9). However, when SNX2 and SNX14 were added simultaneously with IPTG, they produced a much greater increase in the G1 fraction relative to cells treated with IPTG alone (19% increase with SNX2 and 22% increase with SNX14) (FIG. 9).

[2] = tested on: normal human WI-38 fibroblasts; test: Doxorubicin-induced senescent phenotype (SA-β-gal) in WI-38 fibroblasts; details: senescence induced by 200 nM doxorubicin
Description: We have correlated the ability of SNX2-class compounds to inhibit the induction of CDKI-responsive genes with their effect on the senescent phenotype, induced in normal human WI-38 fibroblasts by treatment with 200 nM doxorubicin.

[3] = tested on: HT1080 p21-9 cells co-cultured with C8 mouse fibroblast line; test: Paracrine antiapoptotic activity of p21-expressing HT1080 p21-9 cells, survival of C8 cells in low-serum media; details: p21 induction for three days in presence of compound; C8 survival after 3 days in 0.5% serum, luciferase assay
From the text: We have also tested if SNX2-class compounds can inhibit paracrine tumor-promoting activities of CDKI-expressing cells. In the assay shown in FIG. 12, HT1080 p21-9 cells were either untreated or treated with p21-inducing IPTG, alone or in the presence of three SNX2-class compounds (SNX2, SNX14 and SNX38). After three days, cells were trypsinized, washed to remove residual compounds, and 3×10^3 cell aliquots of each sample were mixed (in 6 replicates) with 10^4 cell aliquots of C8 mouse fibroblast line, which is highly susceptible to apoptosis in low-serum media. (To detect C8 cells in co-culture, we had transduced them with a vector expressing firefly luciferase.) The next day after plating the mixtures in 96-well plates (in 10% serum and in the absence of IPTG or compounds), cells were exposed to low-serum (0.5%) media, and the relative number of surviving C8 cells was measured after 3 days by the luciferase assay.

[4] = tested on: CDKI-responsive promoter of cellular NK4 gene; test: NK4-luciferase reporter in HT1080 p21-9 cells, prevention and reversal of p21-induced transcription; details: for induction of NK4-luciferase by p21 (reversal): compound added after two days of IPTG treatment; for induction of NK4-luciferase by p21: compound added simultaneously with IPTG
Description: The compounds show pronounced dose-dependent inhibition of transcription by p21, but they have only a marginal effect on the promoter function when p21 is not induced. […] In this experiment, HT1080 p21-9 cells that express firefly luciferase from a CDKI-responsive promoter of cellular NK4 gene were cultured with IPTG for two days, which is sufficient for near-maximal induction of NK4.

HT1080 p27-2 cells = test: FACS cell cycle analysis in HT1080 p27-2 cells with IPTG-inducible p27; details: 20 μM compound, 24-hour treatment
Description: IPTG induces dose-dependent increase in the G1 fraction with a corresponding decrease in S and G2/M. The doses of IPTG used in this experiment induce G1 arrest at levels that are lower than the maximal levels that are produced by 50-100 μM IPTG, where >80% of cells are in G1.

T1 sequence (P19838 1-433 limits assumed): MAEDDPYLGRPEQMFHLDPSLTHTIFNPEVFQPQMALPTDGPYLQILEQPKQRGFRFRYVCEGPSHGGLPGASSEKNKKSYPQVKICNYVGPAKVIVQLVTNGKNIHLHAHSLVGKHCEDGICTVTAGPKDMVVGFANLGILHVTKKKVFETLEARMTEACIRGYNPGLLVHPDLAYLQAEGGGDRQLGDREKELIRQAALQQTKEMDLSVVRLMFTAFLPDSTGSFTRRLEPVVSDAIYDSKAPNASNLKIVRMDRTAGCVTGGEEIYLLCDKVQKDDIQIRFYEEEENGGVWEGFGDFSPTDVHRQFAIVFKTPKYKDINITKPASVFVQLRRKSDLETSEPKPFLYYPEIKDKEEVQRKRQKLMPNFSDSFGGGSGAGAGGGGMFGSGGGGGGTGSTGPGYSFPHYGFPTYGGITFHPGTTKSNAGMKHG
T1 sequence (Q04206 whole entry): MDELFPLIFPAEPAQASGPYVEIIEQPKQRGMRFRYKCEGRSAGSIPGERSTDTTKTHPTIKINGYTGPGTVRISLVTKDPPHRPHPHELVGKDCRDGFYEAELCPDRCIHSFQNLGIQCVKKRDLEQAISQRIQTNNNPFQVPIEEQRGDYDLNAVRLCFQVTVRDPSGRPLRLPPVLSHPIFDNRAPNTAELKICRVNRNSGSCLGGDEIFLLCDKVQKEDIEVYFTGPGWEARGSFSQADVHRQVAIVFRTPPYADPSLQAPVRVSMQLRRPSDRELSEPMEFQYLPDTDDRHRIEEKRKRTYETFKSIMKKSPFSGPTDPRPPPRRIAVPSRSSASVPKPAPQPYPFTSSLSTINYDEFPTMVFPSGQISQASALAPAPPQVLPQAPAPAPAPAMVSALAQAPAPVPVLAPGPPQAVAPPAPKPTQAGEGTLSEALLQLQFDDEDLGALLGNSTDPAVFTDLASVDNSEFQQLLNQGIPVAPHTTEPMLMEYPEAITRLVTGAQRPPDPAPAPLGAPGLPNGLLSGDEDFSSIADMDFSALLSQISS

Row | SMILES | TNFα-induced NFκB activity [1] | basal NFκB activity [1] | binding of NFκB proteins p50 or p65 to double-stranded DNA oligonucleotide comprising NFκB binding site ([1]; control or TNFα-treated cells) | increase in the G1 fraction relative to cells treated with IPTG alone (HT1080 p21-9 cells) | decrease in the G2 fraction of IPTG-treated cells (HT1080 p21-9 cells) | increase in the G1 fraction (HT1080 p21-9 cells) | expression of senescence marker SA-β-gal [2] | morphological changes associated with cell senescence [2] | p21-induced increase of C8 cell survival (paracrine antiapoptotic activity) [3] | induction of NK4-luciferase by p21 (reversal) [4] | induction of NK4-luciferase by p21 [4] | effect on sub-maximal G1 arrest induced by IPTG (p27) (HT1080 p27-2 cells)
1 | CCCNc1ncnc2ccc(Br)cc12 [SNX2] | no significant effect | no significant effect | does not inhibit | 19% | 6% | 4% | block this phenotype | diminish | significantly diminished |  |  | 
2 | COCCCNc1ncnc2ccc(I)cc12 [SNX38] |  |  |  |  |  |  |  |  | significantly diminished | reverses; also recorded: strongly decreased | prevents; also recorded: strongly decreased | 
3 | CC(C)Nc1ncnc2ccc(I)cc12 [SNX14] |  |  |  | 22% | 7% | 5% | block this phenotype | diminish | significantly diminished; also recorded: strongest effect |  |  | strongly augmented
4 | Cc1c(Cl)cccc1NC(=O)CCN1CCN(Cc2ccccc2)CC1 [SNX63] |  |  |  |  |  |  |  |  |  | not two days later | inhibited transcription | 
5 | Cc1ccc(S(=O)(=O)N[C@@H](Cc2ccccc2)C(=O)CCl)cc1 [TPCK, reference compound] | completely blocks | completely blocks |  |  |  |  |  |  |  |  |  | 
